In brackets after ≈: the same amount, converted by molar mass. Bridge positions count the residues as written; N and C are the ends. Square brackets hold non-standard residues; d marks the D form. Peptide text beside a SMILES is read from it. ξ: configuration not given here. Thr(3ξ) = CC(O)[C@H](N)C(=O)O
Experiments:
Assay type in all cases: functional
Escherichia coli [1] = test: Antibacterial activity against Escherichia coli ATCC 25922 assessed as reduction in […] at 60 uM incubated for 4 hrs by resazurin assay relative to control; design: scale not given: the % may be the effect or the level left
Escherichia coli [2] = test: Antibacterial activity against Escherichia coli ATCC 25922 assessed as reduction in bacterial cell viability incubated for 4 hrs by resazurin assay; conditions: ATCC 25922, 4 h
Klebsiella pneumoniae = test: Antibacterial activity against rifampin and streptomycin resistant Klebsiella pneumoniae VK148 assessed as reduction in bacterial cell viability incubated for 4 hrs by resazurin assay; conditions: VK148, 4 h

Structure (SMILES)	Activity (Escherichia coli [1])	MIC (Escherichia coli [2])	MIC (Klebsiella pneumoniae)
CC[C@H](C)[C@@H]1NC(=O)[C@H](CO)NC(=O)[C@H](C)NC(=O)[C@H](CO)NC(=O)[C@H](Cc2ccc(O)cc2)NC(=O)[C@@H]2CSSC[C@@H]3NC(=O)[C@H](C(C)C)NC(=O)[C@H](CCCCN)NC(=O)[C@H](Cc4ccc(O)cc4)NC(=O)[C@H](CCCCN)NC(=O)[C@H](CO)NC(=O)[C@@H]4CSSC[C@H](NC(=O)[C@H](C(C)O)NC(=O)[C@H](CCC(=O)O)NC(=O)CNC(=O)[C@H](CSSC[C@H](NC(=O)CNC1=O)C(=O)N[C@@H](CO)C(=O)N4)NC(=O)[C@H](C)NC(=O)CNC(=O)[C@@H]1CCCN1C(=O)[C@H](CC(N)=O)NC(=O)CNC(=O)[C@H](CC(N)=O)NC(=O)[C@H](CC(C)C)NC(=O)[C@H]([C@@H](C)O)NC3=O)C(=O)N[C@@H]([C@@H](C)CC)C(=O)N[C@@H](Cc1c[nH]c3ccccc13)C(=O)NCC(=O)N[C@@H](CCCCN)C(=O)N2 (stereo partly drawn) (cyclo(ACGE[Thr(3ξ)]CIWGKCYSASIGCSCSKYKVCTLNGNPG); disulfide 2-18, 6-20, 11-26)	50%		
CC[C@H](C)[C@@H]1NC(=O)[C@H](C)NC(=O)[C@H](CO)NC(=O)[C@H](CO)NC(=O)[C@H]([C@@H](C)CC)NC(=O)[C@@H]2CSSC[C@@H]3NC(=O)[C@H](C(C)C)NC(=O)[C@H](CCCCN)NC(=O)[C@@H](CO)NC(=O)[C@H](CCCCN)NC(=O)[C@H]4CSSC[C@H](NC(=O)[C@H](CO)NC(=O)[C@H](CCC(=O)O)NC(=O)CNC(=O)[C@H](CSSC[C@H](NC(=O)CNC1=O)C(=O)N[C@@H](CO)C(=O)N4)NC(=O)[C@@H]1CCCN1C(=O)[C@H]([C@@H](C)CC)NC(=O)CNC(=O)[C@H](CC(N)=O)NC(=O)[C@@H](CCCNC(=N)N)NC(=O)[C@H](Cc1ccc(O)cc1)NC3=O)C(=O)N[C@@H](C(C)C)C(=O)N[C@@H](Cc1c[nH]c3ccccc13)C(=O)N[C@@H]([C@@H](C)CC)C(=O)N1CCC[C@H]1C(=O)N2		5 µM (≈ 15.7 µg/mL)	< 12.5 µM
